For assay [1], the system named is U2OS cells. The assay can be described thus: EEA1 assay (endosomal vesicle enlargement as surrogate readout of PIKFyve inhibition). The format is cell-based. The settings on record: Homo sapiens, 3 hours of treatment, class symbols. Here is the method:
EEA1 Assay. Genetic or pharmacological disruption of PIKfyve activity results in enlargement of endosomal vesicles. This enlargement was utilized as a surrogate readout of PIKFyve inhibition for routine triage of PIKfyve inhibitors. U2OS cells grown in 96-well assay plates were treated with compound diluted in DMEM media containing 10% fetal bovine serum. After 3 hours of treatment, cells were fixed with paraformaldehyde, permeabilized with 0.2% Triton-X in phosphate buffered saline and stained against EEA1. During the secondary antibody staining, cells were also stained with CellMask DeepRed and Hoechst to detect cytoplasms and nuclei respectively. Endosomal structures were visualized using a high content imager at 40× magnification. Images were analyzed using a linear classifier algorithm integrating EEA1 spot size, intensity and texture trained on images of cells treated with the potent reference compound APY0201. Compound activity was calculated by subtracting the DMSO signal and calculating percentage activity relative to maximal APY0201 activity. IC50s were then calculated from concentration vs. % inhibition data by logistic regression.

The subject of assay [2] is PIKFYVE TDP-43 yeast strain. In words: Propidium iodide viability assay, PIKFYVE TDP-43 yeast strain. The format is cell-based. The conditions noted are these: Saccharomyces cerevisiae; PIKFYVE TDP-43 yeast strain, values plotted in FIG. 7. On the procedure:
Generation of TDP-43 yeast model expressing human PIKfyve. Human PIKFYVE (“entry clone”) was cloned into […] (“destination vector”) according to standard Gateway cloning protocols (Invitrogen, Life Technologies). The resulting pAG416GPD-PIKFYVE plasmids were amplified in E. coli and plasmid identity confirmed by restriction digest and Sanger sequencing. […]+) (FIG. 2). Transformed yeast were plated on solid agar plates with complete synthetic media lacking uracil (CSM-ura) and containing 2% glucose. Individual colonies harboring the control or PIKFYVE TDP-43 plasmids were recovered. A plasmid containing wild-type TDP-43 under the transcriptional control of the GAL1 promoter and containing the […] as a selectable marker was transformed into the […]-PIKFYVE yeast strain (FIG. 1). Transformed yeast were plated on CSM-ura containing 2% glucose and 200 μg/mL G418 after overnight recovery in media lacking antibiotic. Multiple independent isolates were further evaluated for cytotoxicity and TDP-43 expression levels. Viability Assay. A control yeast strain with the wild-type yeast FAB1 gene and TDP-43 (“FAB1 TDP-43”, carries empty pAG416 plasmid), and the “PIKFYVE TDP-43” yeast strain, were assessed for toxicity using a propidium iodide viability assay. Both yeast strains were transferred from solid CSM-ura/2% glucose agar plates into 3 mL of liquid CSM-ura/2% glucose media for 6-8 hours at 30° C. with aeration. Yeast cultures were then diluted to an optical density at 600 nm wavelength (OD600) of 0.005 in 3 mL of CSM-ura/2% raffinose and grown overnight at 30° C. with aeration to an OD600 of 0.3-0.8. Log-phase overnight cultures were diluted to OD600 of 0.005 in CSM-ura containing either 2% raffinose or galactose and 150 μL dispensed into each well of a flat bottom 96-well plates. Compounds formulated in 100% dimethyl sulfoxide (DMSO) were serially diluted in DMSO and 1.5 μL diluted compound transferred to the 96-well plates using a multichannel pipet. Wells containing DMSO alone were also evaluated as controls for compound effects. Tested concentrations ranged from 15 μM to 0.11 μM. Cultures were immediately mixed to ensure compound distribution and covered plates incubated at 30° C. for 24 hours in a stationary, humified incubator. Upon the completion of incubation, cultures were assayed for viability using propidium iodide (PI) to stain for dead/dying cells. A working solution of PI was made where, for each plate, 1 μL of 10 mM PI was added to 10 mL of CSM-ura (raffinose or galactose). […] The overnight 96-well assay plate was then mixed with a multichannel pipet and 50 μL transferred to the PI-containing plate. This plate was then incubated for 30 minutes at 30° C. in the dark. A benchtop flow cytometer (Miltenyi MACSquant) was then used to assess red fluorescence (B2 channel), forward scatter, and side scatter (with following settings: gentle mix, high flow rate, fast measurement, 10,000 events). Intensity histograms were then gated for “PI-positive” or “PI-negative” using the raffinose and galactose cultures treated with DMSO as controls. The DMSO controls for raffinose or galactose-containing cultures were used to determine the window of increased cell death and this difference set to 100. All compounds were similarly gated and then compared to this maximal window to establish the percent reduction in PI-positive cells.

Assay [3] has as its target full-length human PIKFYVE (Homo sapiens (Human), UniProt Q9Y2I7, L932S/Q1183K/Q995L/S1033A/S696N/T998S). In words: PIKfyve biochemical assay (ADP-Glo Kinase assay, Carna Biosciences). The conditions noted are these: class symbols. In a few lines:
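N-terminal GST-fused full-length PIKFYVE from baculovirus, incubated with compound, substrate and ATP in 50 mM MOPS, 1 mM DTT, pH7.2 for 1 hour at room temperature. ADP formed detected by ADP-Glo luminescence; IC50 from four-parameter logistic fit of % inhibition.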

The text below walks through data of patent publication US20250353852A1, “COMPOUNDS AND COMPOSITIONS THAT INHIBIT PIKFYVE” (Kineta, Inc., priority 2021, published 2025).

full-length human PIKFYVE, sequence (Q9Y2I7 whole entry S696N/L932S/Q995L/T998S/S1033A/Q1183K, the tested form may be a part): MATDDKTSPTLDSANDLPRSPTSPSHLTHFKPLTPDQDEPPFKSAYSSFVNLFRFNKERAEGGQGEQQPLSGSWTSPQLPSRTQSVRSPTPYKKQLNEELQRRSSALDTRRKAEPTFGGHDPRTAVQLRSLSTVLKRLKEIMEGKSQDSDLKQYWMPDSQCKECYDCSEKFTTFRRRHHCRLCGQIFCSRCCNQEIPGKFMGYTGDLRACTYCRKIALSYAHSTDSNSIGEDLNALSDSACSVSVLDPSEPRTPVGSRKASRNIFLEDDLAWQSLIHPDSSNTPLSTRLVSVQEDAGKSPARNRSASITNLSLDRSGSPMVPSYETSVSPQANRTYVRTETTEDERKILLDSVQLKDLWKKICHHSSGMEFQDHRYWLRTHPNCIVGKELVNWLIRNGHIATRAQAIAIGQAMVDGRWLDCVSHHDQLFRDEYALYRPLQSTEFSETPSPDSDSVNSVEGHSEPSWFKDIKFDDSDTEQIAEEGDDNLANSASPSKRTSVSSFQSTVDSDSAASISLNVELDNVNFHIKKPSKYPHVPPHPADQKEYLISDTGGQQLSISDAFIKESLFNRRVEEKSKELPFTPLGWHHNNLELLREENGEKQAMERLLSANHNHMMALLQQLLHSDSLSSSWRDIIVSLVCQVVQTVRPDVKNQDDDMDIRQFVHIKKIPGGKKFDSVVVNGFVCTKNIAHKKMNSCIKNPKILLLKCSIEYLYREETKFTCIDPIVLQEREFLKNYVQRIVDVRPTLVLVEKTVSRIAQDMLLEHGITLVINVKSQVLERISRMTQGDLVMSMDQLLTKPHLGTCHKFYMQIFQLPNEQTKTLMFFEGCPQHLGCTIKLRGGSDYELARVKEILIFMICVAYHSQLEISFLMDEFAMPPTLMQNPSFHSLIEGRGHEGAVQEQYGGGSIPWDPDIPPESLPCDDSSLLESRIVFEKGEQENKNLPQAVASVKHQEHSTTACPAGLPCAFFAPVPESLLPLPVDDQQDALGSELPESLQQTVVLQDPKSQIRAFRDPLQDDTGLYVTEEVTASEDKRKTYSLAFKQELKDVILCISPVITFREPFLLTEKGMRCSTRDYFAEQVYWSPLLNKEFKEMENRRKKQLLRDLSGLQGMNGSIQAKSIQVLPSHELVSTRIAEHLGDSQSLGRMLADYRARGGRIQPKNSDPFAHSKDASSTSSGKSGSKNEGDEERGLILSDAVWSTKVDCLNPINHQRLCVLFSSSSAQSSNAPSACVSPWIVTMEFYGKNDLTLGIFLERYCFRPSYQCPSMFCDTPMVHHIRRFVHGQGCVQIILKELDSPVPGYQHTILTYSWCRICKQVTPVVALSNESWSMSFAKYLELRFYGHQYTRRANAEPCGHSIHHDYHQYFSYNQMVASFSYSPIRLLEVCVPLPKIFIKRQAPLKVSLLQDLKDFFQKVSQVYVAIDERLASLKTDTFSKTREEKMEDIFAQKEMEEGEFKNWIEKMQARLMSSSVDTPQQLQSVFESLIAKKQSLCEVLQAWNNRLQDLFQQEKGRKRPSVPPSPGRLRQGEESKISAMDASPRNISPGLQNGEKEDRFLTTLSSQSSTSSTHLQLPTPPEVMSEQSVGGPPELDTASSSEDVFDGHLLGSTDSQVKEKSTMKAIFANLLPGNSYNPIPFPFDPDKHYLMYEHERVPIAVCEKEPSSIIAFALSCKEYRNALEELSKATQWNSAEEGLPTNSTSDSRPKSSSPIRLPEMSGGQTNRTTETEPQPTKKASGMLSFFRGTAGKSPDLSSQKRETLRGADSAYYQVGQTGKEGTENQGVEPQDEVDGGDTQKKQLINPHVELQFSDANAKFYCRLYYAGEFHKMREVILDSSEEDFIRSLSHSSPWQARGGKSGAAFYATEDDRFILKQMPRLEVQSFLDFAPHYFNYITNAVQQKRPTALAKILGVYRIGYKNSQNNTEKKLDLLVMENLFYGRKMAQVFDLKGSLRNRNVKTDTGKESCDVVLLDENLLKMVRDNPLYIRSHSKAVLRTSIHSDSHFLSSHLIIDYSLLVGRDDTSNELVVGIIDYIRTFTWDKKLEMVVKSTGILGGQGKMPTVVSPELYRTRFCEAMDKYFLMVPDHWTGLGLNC

One may read the IC50 as the concentration that gives 50% inhibition. `Cc1cccc(-c2ccn(-c3cc(N4CCOCC4)n4nccc4n3)n2)c1` [Compound 78, 4-(5-(3-(m-tolyl)-1H-pyrazol-1-yl)pyrazolo[1,5-a]pyrimidin-7-yl)morpholine] came in with an IC50 in assay [1] of 1000 to 10000 nM.

Compound `c1ccc(N2CCc3c(OCc4cccnc4)nc(N4CCOCC4)nc32)cc1` yielded a half-inhibitory concentration (IC50) in assay [2] of 2680 nM.

Compound `Oc1cc(C2CCOCC2)nn1-c1cc(N2CCOCC2)n2nc(-c3ccncc3)cc2n1` [drawing 345] gave an IC50 in assay [2] of 9100 nM. Regarding `Cc1cccc(-c2ccn(-c3cc(N4CCOCC4)n4nc(C(O)CO)cc4n3)n2)c1` (stereo not drawn) [Compound 150, 1-(7-morpholino-5-(3-(m-tolyl)-1H-pyrazol-1-yl)pyrazolo[1,5-a]pyrimidin-2-yl)ethane-1,2-diol], in assay [1], the IC50 fell in the range of 1000 to 10000 nM. In turn, `Cc1cccc(/C=N/Nc2nc(N3CCOCC3)c3ncccc3n2)c1` gave an IC50 in assay [2] of 8210 nM.

As to `COc1nn(-c2cc(N3CCOCC3)n3nc(C(O)CO)cc3n2)cc1-c1ccccc1` (stereo not drawn) [Compound 145, 1-(5-(3-methoxy-4-phenyl-1H-pyrazol-1-yl)-7-morpholinopyrazolo[1,5-a]pyrimidin-2-yl)ethane-1,2-diol], the IC50 in assay [1] lay within 1000 to 10000 nM. For the compound `Cc1cccc(-c2ccn(-c3cc(N4CCOCC4)n4nc(C5CCN(C)C(=O)C5)cc4n3)n2)c1` (stereo not drawn) [Compound 151, 1-methyl-4-(7-morpholino-5-(3-(m-tolyl)-1H-pyrazol-1-yl)pyrazolo[1,5-a]pyrimidin-2-yl)piperidin-2-one], the IC50 in assay [1] was 1000 to 10000 nM. As for `c1ccc(-c2cccc(-c3cc(N4CCOCC4)n4nc(-c5ccncc5)cc4n3)n2)cc1`, it took 230 nM to reach half-maximal inhibition in assay [2] (IC50). `Cc1cccc(/C=N/Nc2cc(N3CCOCC3)nc(OCCc3ccc(CN)cc3)n2)c1` came in with a half-maximal inhibitory concentration (IC50) in assay [2] of 1120 nM. As to `Cc1cccc(-c2ccn(-c3cc(N4CCOCC4)n4nc(CCC(=O)N(C)C)cc4n3)n2)c1` [Compound 149, N,N-dimethyl-3-(7-morpholino-5-(3-(m-tolyl)-1H-pyrazol-1-yl)pyrazolo[1,5-a]pyrimidin-2-yl)propanamide], the IC50 in assay [1] lay within 100 to 1000 nM. In assay [2], `Oc1cc(-c2ccccc2)nn1-c1cc(N2CCOCC2)n2nc(-c3ccncc3)nc2n1` gave an IC50 of 693 nM.

For the compound `c1ccc(-c2ccnc(-c3cc(N4CCOCC4)nc(OCc4ccncc4)n3)n2)cc1`, the IC50 in assay [2] stood at 1450 nM.

Turning to `Fc1cccc(-c2ccnn2-c2nc(N3CCOCC3)c3ncccc3n2)c1`, inhibition in assay [2] was half-maximal at 5750 nM (IC50).

Compound `CC(C)(C)OC(=O)N1CCN(c2cc(N3CCOCC3)n3nc(-c4ccncc4)cc3n2)C(Cc2ccccc2)C1` (stereo not drawn) [Compound 116, tert-butyl 3-benzyl-4-(7-morpholino-2-(pyridin-4-yl)pyrazolo[1,5-a]pyrimidin-5-yl)piperazine-1-carboxylate] showed an IC50 in assay [3] of 1000 to 10000 nM.

As for `OCC(O)c1cc2nc(-n3ccc(-c4ccccc4)n3)cc(N3CCOCC3)n2n1` (stereo not drawn) [Compound 144, 1-(7-morpholino-5-(3-phenyl-1H-pyrazol-1-yl)pyrazolo[1,5-a]pyrimidin-2-yl)ethane-1,2-diol], the IC50 in assay [3] was 10 to 100 nM. Same read-out and setting: in the case of `c1cc(-c2cc3nc(-n4ccc(-c5cncnc5)n4)cc(N4CCOCC4)n3n2)ccn1` [Compound 72, 4-(2-(pyridin-4-yl)-5-(3-(pyrimidin-5-yl)-1H-pyrazol-1-yl)pyrazolo[1,5-a]pyrimidin-7-yl)morpholine] it was 100 to 1000 nM; in that of “4-(5-(3-(2-fluorophenyl)-1H-pyrazol-1-yl)-2-(tetrahydrofuran-2-yl)pyrazolo[1,5-a]pyrimidin-7-yl)morpholine [Compound 91]”, 100 to 1000 nM. As to `c1cncc(-n2nccc2-c2cc(N3CCOCC3)n3nc(-c4ccncc4)cc3n2)c1` [Compound 12, 4-(5-(1-(pyridin-3-yl)-1H-pyrazol-5-yl)-2-(pyridin-4-yl)pyrazolo[1,5-a]pyrimidin-7-yl)morpholine], the IC50 in assay [3] was 1000 to 10000 nM. For the compound `Cc1cccc(/C=N/Nc2nc(N3CCOCC3)c3nc(-c4ccncc4)n(C)c3n2)c1` [drawing 343], the IC50 in assay [2] is 4720 nM.

In assay [3], `c1ccc(-c2ccn(-c3cc(N4CCOCC4)n4nc(C5CCOCC5)cc4n3)n2)cc1` [Compound 98, 4-(5-(3-phenyl-1H-pyrazol-1-yl)-2-(tetrahydro-2H-pyran-4-yl)pyrazolo[1,5-a]pyrimidin-7-yl)morpholine] came in with an IC50 of 100 to 1000 nM. On the same count and under the same terms, in the case of `OCCc1ccn(-c2cc(N3CCOCC3)n3nc(-c4ccncc4)cc3n2)n1` [Compound 80, 2-(1-(7-morpholino-2-(pyridin-4-yl)pyrazolo[1,5-a]pyrimidin-5-yl)-1H-pyrazol-3-yl)ethan-1-ol] it was 100 to 1000 nM; in that of `O=C1CCC(c2ccccc2)CN1c1cc(N2CCOCC2)n2nc(-c3ccncc3)cc2n1` (stereo not drawn) [Compound 26, 1-(7-morpholino-2-(pyridin-4-yl)pyrazolo[1,5-a]pyrimidin-5-yl)-5-phenylpiperidin-2-one], 1000 to 10000 nM; in that of `Fc1cccc(-c2ccn(-c3cc(N4CCOCC4)n4nc(C5CCCO5)cc4n3)n2)c1` (stereo not drawn) [Compound 94, 4-(5-(3-(3-fluorophenyl)-1H-pyrazol-1-yl)-2-(tetrahydrofuran-2-yl)pyrazolo[1,5-a]pyrimidin-7-yl)morpholine], 100 to 1000 nM.

For `c1ccc(C2CCCN(c3cc(N4CCOCC4)n4nc(-c5ccncc5)cc4n3)C2)cc1` (stereo not drawn) [Compound 34, 4-(5-(3-phenylpiperidin-1-yl)-2-(pyridin-4-yl)pyrazolo[1,5-a]pyrimidin-7-yl)morpholine], the IC50 in assay [3] lay within 1000 to 10000 nM.

Compound `O=C1C(c2ccccc2)CCN1c1cc(N2CCOCC2)n2nc(-c3ccncc3)cc2n1` (stereo not drawn) [Compound 23, 1-(7-morpholino-2-(pyridin-4-yl)pyrazolo[1,5-a]pyrimidin-5-yl)-3-phenylpyrrolidin-2-one] returned an IC50 in assay [3] of 100 to 1000 nM. On the same count and under the same terms, in the case of `CN1CCC(c2ccn(-c3cc(N4CCOCC4)n4nc(-c5ccncc5)cc4n3)n2)CC1` [Compound 63, 4-(5-(3-(1-methylpiperidin-4-yl)-1H-pyrazol-1-yl)-2-(pyridin-4-yl)pyrazolo[1,5-a]pyrimidin-7-yl)morpholine] it was 100 to 1000 nM; in that of `c1ccc(C2CC(c3cc(N4CCOCC4)n4nc(-c5ccncc5)cc4n3)CN2)cc1` (stereo not drawn) [Compound 112, 4-(5-(5-phenylpyrrolidin-3-yl)-2-(pyridin-4-yl)pyrazolo[1,5-a]pyrimidin-7-yl)morpholine], 1000 to 10000 nM; in that of `O=c1ccc(-c2ccccc2)nn1-c1cc(N2CCOCC2)n2nc(-c3ccncc3)cc2n1` [Compound 3, 2-(7-morpholino-2-(pyridin-4-yl)pyrazolo[1,5-a]pyrimidin-5-yl)-6-phenylpyridazin-3(2H)-one], 100 to 1000 nM. Still for that read-out and setting: in the case of `c1cc(-c2cc3nc(-n4ccc(C5CNC5)n4)cc(N4CCOCC4)n3n2)ccn1` [Compound 73, 4-(5-(3-(Azetidin-3-yl)-1H-pyrazol-1-yl)-2-(pyridin-4-yl)pyrazolo[1,5-a]pyrimidin-7-yl)morpholine] it was 100 to 1000 nM; in that of `c1cc(-c2cc3nc(-n4ccc(C5CCCNC5)n4)cc(N4CCOCC4)n3n2)ccn1` (single isomer, unassigned) [Compound 76, 4-(5-(3-(piperidin-3-yl)-1H-pyrazol-1-yl)-2-(pyridin-4-yl)pyrazolo[1,5-a]pyrimidin-7-yl)morpholine], 100 to 1000 nM.
